Test results from PMC11173677, “Identification and Evaluation of Olive Phenolics in the Context of Amine Oxidase Enzyme Inhibition and Depression: In Silico Modelling and In Vitro Validation” (Molecules, 2024).
pIC50, pKi: −log10 of the molar value. Each block holds one compound with its values, some of them ahead of it.

Assays:
[1] = system: T1, MAO-B; assay: MAO-B activity assay in hESC-derived neurons stimulated with ATRA; format: cell-based, human; details: 1 μM ATRA 24 h, then TCP 5 μM, OLC 50 μM or OLP 50 μM for 24 h
T1 construct: endogenous in cells; host or cells: BJ human foreskin fibroblasts stimulated with DEX or HC
Experimental: (§1) An in vitro model of MDD was designed for stem cell-derived neuronal cells through incubation of 1 μM all-trans retinoic acid (Sigma-Aldrich PHR1187, St. Louis, MO, USA). All cell treatments were conducted in duplicate and replicated using independently differentiating neuronal plates.
(§2) Activity assays were commercially sourced from BioVision (Abcam, BioVision ab241031, Waltham, MA, USA) and were performed according to manufacturer’s instructions. The treatment groups were plated in duplicate on a black, flat 96-well microplate. The cells were homogenised in assay buffer using a microtube mixer at 4 °C and centrifuged at 10,000× g for 10 min. A Bradford assay was performed to determine the total protein concentration within each cell pellet (200 μg/well for BJ cells, 40 μg/well for hESC-derived neurons). Approximately 40 μL of supernatant was loaded into wells along with 10 μL of either […], or assay buffer for total MAO activity. A H2O2 standard was pipetted as supplied and 50 μL of reaction mix was pipetted into all wells. Using a CLARIOstar Plus Microplate Reader, (BMG Labtech, Ortenberg, Germany), fluorescence was measured kinetically at 25 °C for 60 min with Ex/Em = 535/587 nm.

[2] = system: T2, MAO-A; assay: MAO-A activity assay in hESC-derived neurons stimulated with ATRA; format: cell-based, human; details: 1 μM ATRA 24 h, then TCP 5 μM, OLC 50 μM or OLP 50 μM for 24 h
T2 construct: endogenous in cells; host or cells: BJ human foreskin fibroblasts stimulated with DEX or HC
Experimental: as §1, §2

[3] = system: total MAO; assay: Total MAO activity assay in hESC-derived neurons stimulated with ATRA; format: cell-based, human; details: 1 μM ATRA 24 h, then TCP 5 μM, OLC 50 μM or OLP 50 μM for 24 h
Experimental: as §1, §2

[4] = system: T3, LSD1; assay: LSD1 activity in nuclear extracts of BJ cells stimulated with DEX; format: cell-based, human; details: DEX 50 μM 72 h, then TCP 5 μM or OLP, HT, HTA 50 μM for 48 h
T3 construct: nuclear proteins extracted from the BJ cultures were directly assayed for LSD1 activity; endogenous in cells; host or cells: BJ human foreskin fibroblasts (nuclear extract, DEX-stimulated)
Experimental: Histone demethylase LSD1 activity assay
4µL of nuclear extracts containing 5µg protein was added to designated strip wells with stably
captured LSD1 substrate (H3K4me2), followed by an additional 26µL of H3K4me2 (HG3)
substrate diluted in assay buffer (HG2). In no enzyme control wells, the 4µL of nuclear
extracts was replaced with 4µL of assay buffer. Blank wells contained 30µL of assay buffer.
A standard curve was generated by adding 1µL of standard (HG4) at incrementally increasing
concentrations (0.1-10ng/µL) to 29µL of assay buffer in designated standard wells. After all
wells were loaded appropriately, the assay plate was incubated away from light at room
temperature for 60 minutes. Following incubation, contents were aspirated and wells were
washed three times with 150µL of wash buffer (HG1). 50µL of capture antibody (HG5)
diluted at a 1:1000 ratio was then added to all wells before incubating at room temperature
for 60 minutes on a rotating platform. Well contents were then aspirated and washed four
times with 150µL of wash buffer. 50µL of detection antibody (HG6) diluted at a 1:1000 ration
was then added to each well. Assay plate was then incubated for a final time at room
temperature for 30 minutes. Well contents were aspirated again, followed by six washes with
150µL wash buffer. 50µL of fluoro-developer (HG7) was then added into each well and
allowed to develop away from light for 1-5 minutes. Fluorescence was then read on a
CLARIOstar Microplate Reader (BMG Labtech, Ortenberg Germany) at Ex/Em =

[5] = target: MAO-A; set-up: method as in PMID 17915852; details: read-out: inhibition constant, MAO-A; cited from earlier work
[6] = target: MAO-B; set-up: method as in PMID 17915852; details: read-out: inhibition constant, MAO-B; cited from earlier work
[7] = target: T4, LSD1 (Homo sapiens, UniProt O60341); assay: LSD1 fluorescence coupling enzyme assay (Reaction Biology Corporation); format: biochemical; details: Reaction Biology Corp., 30 min pre-incubation, 10 μM histone H3(1-21)K4me2 peptide substrate; read-out: IC50, LSD1 demethylase activity
T4 construct: Reaction Biology Corporation (performed the assay)
Experimental: The inhibitory activity of HCl 489479, OLC, and OLP was measured using a fluorescence coupling enzyme assay (performed by Reaction Biology Corporation). […] All compounds were pre-incubated for 30 min with the enzyme before the addition of 10 μM histone H3(1-21)K4me2 peptide substrate to start the reaction. Fluorescence was measured using an EnVision Multimode Plate Reader at Ex/Em = 535/590.

[8] = system: human skin fibroblasts; set-up: method as in PMID 37432217; details: in comparison to untreated controls, at certain doses; cited from earlier work
[9] = target: T5, purified MAO-A (Homo sapiens, UniProt P21397); assay: MAO-A direct screening assay (inhibitor screening kit); format: biochemical; details: purified enzyme; read-out: IC50, inhibition of MAO-A
T5 construct: purchased Sigma-Aldrich MAK295
T5 sequence (P21397 1-527): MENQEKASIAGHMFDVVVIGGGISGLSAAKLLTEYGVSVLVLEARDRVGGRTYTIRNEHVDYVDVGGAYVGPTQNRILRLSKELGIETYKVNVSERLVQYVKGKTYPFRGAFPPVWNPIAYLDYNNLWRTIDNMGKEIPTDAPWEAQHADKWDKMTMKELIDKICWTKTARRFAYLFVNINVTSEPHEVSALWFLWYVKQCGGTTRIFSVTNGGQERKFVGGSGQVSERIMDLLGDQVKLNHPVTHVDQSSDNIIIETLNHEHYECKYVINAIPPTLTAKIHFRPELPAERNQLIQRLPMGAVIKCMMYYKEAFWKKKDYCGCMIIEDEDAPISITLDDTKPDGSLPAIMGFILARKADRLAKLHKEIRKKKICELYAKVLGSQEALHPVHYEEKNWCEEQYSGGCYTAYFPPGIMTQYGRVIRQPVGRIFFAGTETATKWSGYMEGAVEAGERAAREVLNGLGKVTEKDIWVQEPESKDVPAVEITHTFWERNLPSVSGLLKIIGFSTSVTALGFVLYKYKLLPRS
Experimental: (§3) The assays were conducted for MAO-A and MAO-B according to the manufacturer’s instructions.

[10] = system: H3K4 mono-methylation; assay: H3K4 mono-methylation in BJ cells (Western blotting); format: cell-based, human; details: 50 μM, 48 h, compared to untreated cells; effects more pronounced with DEX
Experimental: As described in the Supplementary Information, nuclear proteins extracted from the BJ cultures were directly assayed for LSD1 activity (Epigentek P-3076, Farmingdale, NY, USA). Fluorescence was read on a CLARIOstar Microplate Reader (BMG Labtech, Ortenberg, Germany) at Ex/Em = 530/590 nm (Figure S4). Histone proteins were extracted from the treated cultures and were analysed through Western blotting. The mono-methylation status of lysine on histone 3 (H3K4) was determined via immunodetection (Table S6).
100µL of Nuclear Extraction Buffer containing 0.2µL 1M DTT and 0.4µL PIC was then added to the remaining nuclei-containing pellets. Full resuspension was achieved through multiple rounds of vigorous vortexing and ice incubations (to maintain protein integrity). Once the entire pellet was visibly resuspended in NEB, tubes were centrifuged at 16,000g for 10 minutes. The resulting supernatant containing the nuclear extract fraction was transferred to clean 0.5mL tubes and stored at -80°C.
Acid extraction of histone proteins
Cells were washed in 10mL of pre-chilled PBS (1X) and detached from flask surface via mechanical disruption using a cell scraper. Cell solution was then transferred into a 15mL tube and centrifuged at 150g for 10 minutes. Supernatant was then discarded and the remaining cell pellet resuspended in 0.5mL PBS (1X) and transferred into a 1.5mL microcentrifuge tube. Cells were then centrifuged at 9400g for 20 seconds, after which the supernatant was removed and discarded. The remaining pellet was then briefly resuspended in 600µL of acid extraction lysis buffer (10mM KCl, 10mM HEPES, […]) containing cOmplete™ Mini Protease Inhibitor Cocktail (Sigma-Aldrich, Roche 11836153001, MO USA) and 0.3µL 1M DTT. This will cause cells to pre-swell, resulting in a reduced amount of PBS (1X) remaining in the microcentrifuge tube that may deter maximal cell lysis capacity. Cells were then centrifuged at 9400g for 20 seconds with the resultant supernatant aspirated and discarded. […]

[11] = target: purified LSD1 (Homo sapiens, UniProt O60341); assay: LSD1 direct screening assay (Epigentek inhibitory screening kit); format: biochemical; details: direct incubation with purified LSD1, Epigentek kit; read-out: IC50, inhibition of LSD1
Experimental: Fluorescence was measured using a CLARIOstar Plus Microplate Reader (BMG Labtech, Ortenberg, Germany) at excitation and emission wavelengths of 530 nm and 590 nm, respectively (Ex/Em = 530/590 nm).

[12] = target: T6, purified MAO-B (Homo sapiens, UniProt P27338); assay: MAO-B direct screening assay (inhibitor screening kit); format: biochemical; details: purified enzyme; read-out: IC50, inhibition of MAO-B
T6 construct: purchased Sigma-Aldrich MAK296
T6 sequence (P27338 1-520): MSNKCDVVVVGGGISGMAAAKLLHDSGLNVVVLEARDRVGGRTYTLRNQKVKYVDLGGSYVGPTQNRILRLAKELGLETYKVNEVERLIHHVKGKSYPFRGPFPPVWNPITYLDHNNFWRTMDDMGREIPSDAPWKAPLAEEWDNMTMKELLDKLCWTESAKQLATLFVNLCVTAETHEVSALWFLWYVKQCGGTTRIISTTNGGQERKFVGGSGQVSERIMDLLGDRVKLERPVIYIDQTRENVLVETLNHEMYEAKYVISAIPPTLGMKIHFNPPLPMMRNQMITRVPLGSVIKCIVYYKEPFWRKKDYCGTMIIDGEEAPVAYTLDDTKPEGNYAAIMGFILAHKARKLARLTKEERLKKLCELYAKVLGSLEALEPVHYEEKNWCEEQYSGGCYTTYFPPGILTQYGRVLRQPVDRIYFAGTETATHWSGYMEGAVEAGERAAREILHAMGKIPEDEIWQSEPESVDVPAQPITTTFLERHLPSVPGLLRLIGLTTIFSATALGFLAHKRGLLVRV
Experimental: as §3

[13] = system: MAO-A; set-up: method as in PMID 30809547; details: cited from earlier work
[14] = system: MAO-B; set-up: method as in PMID 30809547; details: cited from earlier work

Compound: N[C@@H]1C[C@H]1c1ccccc1 (racemic) [TCP, tranylcypromine, reference compound]
MAO-B activity in hESC-derived neurons [1]: significantly reduced | MAO-A activity in hESC-derived neurons [2]: significantly reduced | total MAO activity in hESC-derived neurons [3]: significantly reduced | LSD1 activity in BJ cultures stimulated with DEX [4]: significant reduction

Compound: CNCc1cc(=O)oc2cc(OCc3cccc(Cl)c3)ccc12 [7-(3-chlorobenzyloxy)-4-(methylamino)methyl-coumarin]
pKi [5]: 4.80 | pKi [6]: 7.00

Compound: O=Cc1cc(=O)oc2cc(OCc3cccc(Cl)c3)ccc12 [7-(3-chlorobenzyloxy)-4-carboxaldehyde-coumarin]
pKi [5]: 4.96 | pKi [6]: 6.40

pIC50 [7]: 6.24 | pIC50 [9]: 6.37 | pIC50 [11]: 7.41
Compound: OCCc1ccc(O)c(O)c1 [HT, hydroxytyrosol]
growth capacity of human skin fibroblasts [8]: significantly increased | baseline levels of H3K4 mono-methylation in BJ cells [10]: increased | LSD1 activity in BJ cultures stimulated with DEX [4]: significant reduction

pIC50 [7]: 7.51 | pIC50 [12]: 4.04 | pIC50 [9]: 6.15 | pIC50 [11]: 5.96
Compound: CC(=O)OCCc1ccc(O)c(O)c1 [HTA, hydroxytyrosol acetate]
baseline levels of H3K4 mono-methylation in BJ cells [10]: increased | LSD1 activity in BJ cultures stimulated with DEX [4]: significant reduction

Compound: COc1cc(/C=C/c2ccc(O)cc2)cc(OC)c1 [pterostilbene]
pIC50 [13]: 4.87 | pIC50 [14]: 6.86

Compound: Oc1ccc(/C=C/c2cc(O)cc(O)c2)cc1 [resveratrol]
pIC50 [13]: 6.50 | pIC50 [14]: 4.80

Compound: isoeugenol
pIC50 [14]: 3.99
